# Data taken from patent US11571421B2, “GABAA positive allosteric modulator compounds for treatment of itch and/or dermatitis” (NeuroCycle Therapeutics, Inc., priority 2018, dated 2023).
# Columns and labels:
# Type in all cases: in vivo
# [1] = test system: Histamine-Induced Itch Model in Male C57BL/6 Mice; experiment: Histamine-Induced Itch Model (Example 3); details: oral gavage 90 min before 100 μg histamine cheek injection; 1, 3, 10, 30 and 100 mg/kg
# Procedure: PF-06372865 (an alpha 2, alpha 3, and alpha 5 agonist; and an alpha 1 antagonist) is assessed for its antipruritic effects against a cheek injection of 100 μg histamine in wild-type C57BL/6 mice. The mice are dosed with PF-06372865 by oral gavage ninety (90) minutes before histamine injection. Doses of PF-06372865 are vehicle, 1, 3, 10, 30 and 100 mg/kg.
# [2] = test system: Oxazolone-induced Itch Model in Male C57BL/6 Mice; experiment: Oxazolone-induced dermatitis model of chronic itch (Example 7)
# Procedure: In order to assess: the antipruritic effect of PF-06372865 in a clinically relevant disease, the development of a tolerance towards the antipruritic effect of PF-06372865, and the effect of PF-06372865 in reducing dermatitis after prolonged treatment, the oxazolone-induced dermatitis model of chronic itch is used. To this end, wild-type C57Bl/6 mice are treated with 100 μL of 10% oxazolone (4-Ethoxymethylene-2-phenyl-2-oxazolin-5-one) dissolved in acetone/olive oil (4:1) on the nape of the neck. From day 7 to day 31 these mice are treated every other day with 100 μL 1% oxazolone to induce and maintain dermatitis and chronic itch. From day 17 onward, mice are treated with intraperitoneal injection of vehicle or 10 mg/kg PF-06372865 for thirteen consecutive days. On day 31, mice are given either intraperitoneal injection of vehicle or PF-06372865 (10 mg/kg). The number of scratching bouts directed to the nape of the neck between 15 to 210 min after injection are recorded. […] This is independent of the treatment they received from day 7 to day 30. […] To quantify the severity of skin lesions, a dermatitis score are determined. Hemorrhage/erythema, dryness/scaring and hyperplasia (Yamada et. al. Exp Dermatol. 2016, 25, 611-617) are scored as 0 (none), 1 (mild), 2 (moderate) or 3 (severe) once per day resulting in a score between 0 and 9. […]
# [3] = test system: Dry Itch Model in Male C57BL/6 Mice; experiment: Dry skin itch model (Example 8); details: 10 mg/kg intraperitoneal; 15 to 210 min after injection
# Procedure: In order to assess the antipruritic effect of PF-06372865 in another clinically relevant disease, the dry skin model of dermatitis is used. In the dry skin model, mice are treated with a mixture of acetone and diethylether (1:1) on the shaved nape of the neck for 15 s, followed by distilled water for 30 sec, twice daily for 10 days. On the day of the experiment, mice received intraperitoneal injection of vehicle or PF-06372865 (10 mg/kg). The number of scratching bouts directed to the nape of the neck between 15 to 210 min after injection are recorded.
# [4] = test system: Oxazolone-Induced Dermatitis Model in male C57BL/6 mice; experiment: Repeat dose Oxazolone-Induced Dermatitis Model (Example 10)
# Procedure: Male C57BL/6 Mice (8-10 weeks) are used in the study. Mice are housed one per cage and are maintained at controlled environmental conditions with 12-h light and dark cycles. The temperature and humidity of the room are maintained between 22±3° C. and 55±5%, respectively. The maximum and minimum temperature and relative humidity in the experimental rooms are recorded once daily.
# NCT10004 phosphate (adjusted with salt correction factor) is weighed into a clean glass container. 0.5% Methyl Cellulose (MC) is added, and the resulting mixture is mixed well using mild vortexing and stirred for 40 minutes to provide a homogeneous suspension.
# PF-06372865 is weighed into a clean mortar. […]
# Animals are dosed with respective treatment groups for fourteen consecutive Days (From Day 17-Day 30). To quantify any changes in the severity of skin lesions, Animals are assigned dermatitis scores prior to dosing and daily there after starting from Day 17 and ending on Day 30.
# Skin lesion are observed and scored as follows: Hemorrhage/erythema, dryness/scaling and hyperplasia are scored as 0 (none), 1 (mild), 2 (moderate) or 3 (severe) once per day resulting in a composite score between 0 and 9. […]
# Animals are observed by an observer blind to the treatment group for a period of 210 minutes post Oxazolone application. Number of scratching bouts directed to the nape between 15 to 210 min after dosing are recorded. […]
# [5] = test system: Non-Histamine-Induced Itch Model in Male C57BL/6 Mice; experiment: Non-Histamine (chloroquine)-Induced Itch Model (Example 5); details: oral gavage 90 min before chloroquine; 1, 3, 10, 30 and 100 mg/kg
# Procedure: The mice are dosed with PF-06372865 by oral gavage ninety (90) minutes before chloroquine injection. Doses of PF-06372865 are 1, 3, 10, 30 and 100 mg/kg.
structure (smiles),measurement,setting,value
CCn1cnc2c(-c3ccc(F)c(-c4ccc(S(=O)(=O)CC)cc4OC)c3)cnnc21 [PF-06372865],"scratching bouts, histaminergic itch",[1],dose-dependent reduction of scratching bouts
same,skin lesions (dermatitis score),[2]; 10 mg/kg intraperitoneal for thirteen consecutive days,significant reduction in skin lesions
same,scratching bouts compared to vehicle injection,"[2]; 10 mg/kg intraperitoneal on day 31, 15 to 210 min after injection",significant reduction in scratching bouts
same,scratching bouts compared to vehicle injection,[3],significant reduction in scratching bouts
same,skin lesions (lesion score),"[4]; 1 mg/kg BID PO, Day 17-Day 30",decreases skin lesions comparable to the NCT10004
same,scratching bouts,"[4]; 1 mg/kg PO, 15-210 minutes",reduces scratching bouts
same,"scratching bouts, chloroquine-induced itch",[5],dose-dependent reduction of scratching bouts
